The source made the active and inactive calls. The rule behind the calls is not given here.
How the values were obtained:
[1] = test system: Candida albicans; assay: Antifungal activity against Candida albicans ATCC 5314 assessed as reduction in fungal growth incubated for 24 hrs by serial dilution method; format: functional; conditions: ATCC 5314, 24 h, read-out: MIC
[2] = test system: Staphylococcus aureus; assay: Antibacterial activity against Staphylococcus aureus ATCC 29213 assessed as reduction in bacterial growth at MIC measured after 15 passages; format: functional
[3] = test system: Staphylococcus aureus; assay: Inhibition of biofilm formation in methicillin-resistant Staphylococcus aureus ATCC 18466 at MIC incubated for 24 hrs by scanning electron microscopy; format: functional, organism-based
[4] = test system: Staphylococcus aureus; assay: Disruption of membrane integrity in Staphylococcus aureus ATCC 29213 assessed as cell membrane damage at MIC incubated for 24 hrs by scanning electron microscopy; format: functional, organism-based
[5] = test system: Staphylococcus aureus; assay: Disruption of membrane integrity in Staphylococcus aureus ATCC 29213 assessed as shrinking of cell membrane at MIC incubated for 24 hrs by scanning electron microscopy; format: functional, organism-based
[6] = test system: Staphylococcus aureus; assay: Disruption of membrane integrity in Staphylococcus aureus ATCC 25923 assessed as cell membrane damage at MIC incubated for 24 hrs by scanning electron microscopy; format: functional, organism-based
[7] = test system: Staphylococcus aureus; assay: Disruption of membrane integrity in Staphylococcus aureus ATCC 25923 assessed as extravasation of cytoplasmic content at MIC incubated for 24 hrs by scanning electron microscopy; format: functional, organism-based
[8] = test system: Staphylococcus aureus; assay: Disruption of membrane integrity in Staphylococcus aureus ATCC 25923 assessed as perforation of cell membrane at MIC incubated for 24 hrs by scanning electron microscopy; format: functional, organism-based
[9] = test system: Staphylococcus aureus; assay: Disruption of membrane integrity in methicillin-resistant Staphylococcus aureus ATCC 19498 assessed as cell membrane damage at MIC incubated for 24 hrs by scanning electron microscopy; format: functional, organism-based
[10] = test system: Staphylococcus aureus; assay: Disruption of membrane integrity in methicillin-resistant Staphylococcus aureus ATCC 18466 assessed as decrease in cell volume at MIC incubated for 24 hrs by scanning electron microscopy; format: functional, organism-based
[11] = test system: Staphylococcus aureus; assay: Disruption of membrane integrity in methicillin-resistant Staphylococcus aureus ATCC 18466 assessed as cell membrane damage at MIC incubated for 24 hrs by scanning electron microscopy; format: functional, organism-based
[12] = test system: Staphylococcus aureus; assay: Disruption of membrane integrity in methicillin-resistant Staphylococcus aureus ATCC 18466 assessed as extravasation of cytoplasmic content at MIC incubated for 24 hrs by scanning electron microscopy; format: functional, organism-based
[13] = test system: Staphylococcus aureus; assay: Disruption of membrane integrity in methicillin-resistant Staphylococcus aureus ATCC 18466 assessed as perforation of cell membrane at MIC incubated for 24 hrs by scanning electron microscopy; format: functional, organism-based
[14] = test system: Staphylococcus aureus; assay: Inhibition of biofilm formation in methicillin-resistant Staphylococcus aureus ATCC 18466 assessed as downregulation of spa gene at MIC incubated for 1 hr by qRT-PCR; format: functional, organism-based
[15] = test system: Staphylococcus aureus; assay: Inhibition of biofilm formation in methicillin-resistant Staphylococcus aureus ATCC 19498 assessed as downregulation of hld gene at MIC incubated for 1 hr by qRT-PCR; format: functional, organism-based
[16] = test system: Staphylococcus aureus; assay: Inhibition of biofilm formation in methicillin-resistant Staphylococcus aureus ATCC 18466 assessed as downregulation of hld gene at MIC incubated for 1 hr by qRT-PCR; format: functional, organism-based
[17] = test system: Staphylococcus aureus; assay: Inhibition of biofilm formation in methicillin-resistant Staphylococcus aureus ATCC 18466 assessed as downregulation of mecA gene at MIC incubated for 1 hr by qRT-PCR; format: functional, organism-based
[18] = test system: Erythrocyte; assay: Hemolytic activity in mouse Erythrocyte assessed as HC10 incubated for 1 hr; format: ADME, cell-based
[19] = Stability in mouse plasma at 20 uM incubated for 24 hrs by HPLC-MS analysis; format: ADME, cell-free

Row | Substance | MIC [1] | Activity [2] | inhibition [3] | Activity [4] | Activity [5] | Activity [6] | Activity [7] | Activity [8] | Activity [9] | Activity [10] | Activity [11] | Activity [12] | Activity [13] | inhibition [14] | inhibition [15] | inhibition [16] | inhibition [17] | HC10 [18] | Stability [19]
1 | H-SYERKINRHFKTLKKNLKKK-NH2 | 64 µg/mL | Active | Active | Active | Active | Active | Active | Active | Active | Active | Active | Active | Active | Active | Active | Active | inactive | > 640 µg/mL | Unstable
2 | H-YIRKIRRFFKKLKKILKK-NH2 | 32 µg/mL | Active | Active | Active | Active | Active | Active | Active | Active | Active | Active | Active | Active | Active | Active | Active | inactive | 640 µg/mL | Unstable

Reference: ChEMBL document CHEMBL4311960, “Two optimized antimicrobial peptides with therapeutic potential for clinical antibiotic-resistant Staphylococcus aureus” (Eur J Med Chem, 2019)
